Experiments:
[1] = molecular target: Dihydroorotate dehydrogenase (quinone), mitochondrial (Homo sapiens, UniProt Q02127); test: Inhibition of human DHODH in MOLM-13 AML cells; assay type: cell-based
P-gp (ABCB1) = P-gp (ABCB1) (Homo sapiens, UniProt P08183); test: Substrate activity at P-gp (unknown origin) assessed as efflux ratio; assay type: ADME; details: not told
[2] = Metabolic stability in human liver microsome assessed as half life; assay type: ADME; details: liver microsomes
MOLM-13 = test: Antiproliferative activity in human MOLM-13 AML cells assessed as reduction in cell viability incubated for 72 hrs by CellTiter-Glo assay; details: MOLM-13, 72 h
[3] = Metabolic stability in mouse liver microsome assessed as half life; assay type: ADME; details: liver microsomes
[4] = Microsomal stability in human assessed as half-life; assay type: ADME, Microsome; details: microsomes
[5] = Microsomal stability in mouse assessed as half-life; assay type: ADME, Microsome; details: microsomes
[6] = Permeability of compound in MDCK cells; assay type: ADME, cell-based, Canis lupus familiaris; details: dog, read-out: permeability
[7] = Intrinsic clearance in human liver microsomes; assay type: ADME, Microsome; details: read-out: CLH
[8] = Volume of distribution at steady state in C57 mouse at 10 mg/kg, po or 2 mg/kg, iv; assay type: ADME, organism-based; details: in vivo
[9] = Half-life in C57 mouse at 10 mg/kg, po or 2 mg/kg, iv; assay type: ADME, organism-based; details: in vivo
[10] = Clearance in iv dosed mouse assessed as hepatic blood flow; assay type: ADME, organism-based; details: in vivo
[11] = Plasma protein binding in human assessed as free fraction; assay type: ADME, cell-free; details: read-out: PPB
[12] = Oral bioavailability in C57 mouse at 10 mg/kg; assay type: ADME, organism-based; details: in vivo
[13] = Plasma protein binding in mouse assessed as free fraction; assay type: ADME, cell-free; details: read-out: PPB

Chain of P-gp (ABCB1) (P08183 whole entry): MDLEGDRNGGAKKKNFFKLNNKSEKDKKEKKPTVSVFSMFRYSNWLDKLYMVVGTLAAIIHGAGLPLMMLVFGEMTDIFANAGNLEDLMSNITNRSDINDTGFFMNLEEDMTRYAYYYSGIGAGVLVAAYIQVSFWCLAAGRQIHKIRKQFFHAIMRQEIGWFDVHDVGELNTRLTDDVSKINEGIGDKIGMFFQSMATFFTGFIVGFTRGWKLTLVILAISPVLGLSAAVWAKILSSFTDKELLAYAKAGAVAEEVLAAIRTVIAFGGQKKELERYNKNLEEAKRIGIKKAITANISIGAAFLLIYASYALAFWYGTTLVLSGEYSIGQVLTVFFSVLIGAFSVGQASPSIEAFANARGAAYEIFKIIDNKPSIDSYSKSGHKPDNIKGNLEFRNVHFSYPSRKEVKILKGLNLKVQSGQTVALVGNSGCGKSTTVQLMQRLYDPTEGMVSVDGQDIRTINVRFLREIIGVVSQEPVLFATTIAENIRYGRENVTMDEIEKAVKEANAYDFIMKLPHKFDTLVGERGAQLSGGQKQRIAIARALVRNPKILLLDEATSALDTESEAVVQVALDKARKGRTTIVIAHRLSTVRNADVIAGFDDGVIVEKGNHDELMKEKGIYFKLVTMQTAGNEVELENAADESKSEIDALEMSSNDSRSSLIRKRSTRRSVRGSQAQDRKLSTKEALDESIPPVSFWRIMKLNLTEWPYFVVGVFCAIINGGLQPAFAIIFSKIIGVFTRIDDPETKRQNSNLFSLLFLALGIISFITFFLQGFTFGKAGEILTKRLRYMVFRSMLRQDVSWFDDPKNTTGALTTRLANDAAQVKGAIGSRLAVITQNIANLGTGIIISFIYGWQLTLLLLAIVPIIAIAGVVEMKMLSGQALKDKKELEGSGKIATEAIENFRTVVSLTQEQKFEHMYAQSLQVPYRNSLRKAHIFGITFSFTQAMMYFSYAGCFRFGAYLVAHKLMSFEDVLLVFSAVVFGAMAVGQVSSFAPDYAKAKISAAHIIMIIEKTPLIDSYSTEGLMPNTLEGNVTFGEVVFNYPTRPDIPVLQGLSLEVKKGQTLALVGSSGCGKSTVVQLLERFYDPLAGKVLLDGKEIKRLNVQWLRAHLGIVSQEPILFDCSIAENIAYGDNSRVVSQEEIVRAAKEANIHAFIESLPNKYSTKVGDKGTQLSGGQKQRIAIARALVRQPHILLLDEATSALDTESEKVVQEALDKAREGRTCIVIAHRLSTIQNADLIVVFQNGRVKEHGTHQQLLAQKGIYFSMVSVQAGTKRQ
Chain of Dihydroorotate dehydrogenase (quinone), mitochondrial (Q02127 whole entry): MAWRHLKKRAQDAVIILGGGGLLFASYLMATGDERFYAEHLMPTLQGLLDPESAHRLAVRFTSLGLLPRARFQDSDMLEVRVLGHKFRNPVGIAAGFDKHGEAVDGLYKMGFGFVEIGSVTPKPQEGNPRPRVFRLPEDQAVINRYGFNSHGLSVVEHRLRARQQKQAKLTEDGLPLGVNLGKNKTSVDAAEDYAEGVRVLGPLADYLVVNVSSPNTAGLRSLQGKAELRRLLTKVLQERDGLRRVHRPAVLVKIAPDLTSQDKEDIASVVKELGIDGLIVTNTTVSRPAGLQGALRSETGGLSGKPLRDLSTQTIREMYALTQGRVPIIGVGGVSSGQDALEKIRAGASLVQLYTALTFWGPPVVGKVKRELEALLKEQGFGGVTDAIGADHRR

SMILES | half-life [2] | IC50 (MOLM-13) | half-life [3] | other results
CCn1c(CO)nn(-c2nc(O[C@@H](C)C(F)(F)F)c(C(=O)Nc3c(F)cccc3Cl)cc2F)c1=O | – | – | – | IC50 [1]: 0.24 nM; efflux ratio (P-gp (ABCB1)): > 30
CCN(C(=O)Nc1cc(O[C@@H](C)C(F)(F)F)c(C(=O)Nc2c(F)cccc2Cl)cc1F)C1CC1 | 50 min | 1 nM | 20 min | –
CCN(CC)C(=O)Nc1cc(O[C@@H](C)C(F)(F)F)c(C(=O)Nc2c(F)cccc2Cl)cc1F | 26 min | 0.63 nM | 12 min | –
CCN(C)C(=O)Nc1cc(O[C@@H](C)C(F)(F)F)c(C(=O)Nc2c(F)cccc2Cl)cc1F | 21 min | 0.82 nM | < 4 min | –
CCC(=O)Nc1cc(O[C@@H](C)C(F)(F)F)c(C(=O)Nc2c(F)cccc2Cl)cc1F | – | 35 nM | – | –
C[C@H](Oc1cc(NC(=O)N(C)C)c(F)cc1C(=O)Nc1c(F)cccc1Cl)C(F)(F)F | 22 min | 2 nM | < 4 min | –
CC(=O)Nc1cc(O[C@@H](C)C(F)(F)F)c(C(=O)Nc2c(F)cccc2Cl)cc1F | – | 370 nM | – | –
CCn1c(CO)nn(-c2nc(O[C@@H](C)C(F)(F)F)c(C(=O)Nc3c(C)cnc(OC)c3Cl)cc2F)c1=O | – | – | – | Papp [6]: 27 ×10⁻⁶ cm/s; efflux ratio (P-gp (ABCB1)): > 30; CLint scaled [7]: < 7.7 mL/min/kg
C[C@H](Oc1cc(NC(=O)N2CCCC2)c(F)cc1C(=O)Nc1c(F)cccc1Cl)C(F)(F)F | – | 1.3 nM | – | –
COCC1CCCN1C(=O)Nc1cc(O[C@@H](C)C(F)(F)F)c(C(=O)Nc2c(F)cccc2Cl)cc1F (stereo partly specified) | – | 11 nM | – | –
CCC(CC)C(=O)Nc1cc(O[C@@H](C)C(F)(F)F)c(C(=O)Nc2c(F)cccc2Cl)cc1F | – | 53 nM | – | –

The next lines start with results.

half-life [2] | IC50 (MOLM-13) | half-life [3] | SMILES | other results
< 4 min | 25 nM | < 4 min | CCN(CC)C(=O)N(C)c1cc(O[C@@H](C)C(F)(F)F)c(C(=O)Nc2c(F)cccc2Cl)cc1F | –
28 min | 1.6 nM | 15 min | C[C@H](Oc1cc(NC(=O)N2CCC2CO)c(F)cc1C(=O)Nc1c(F)cccc1Cl)C(F)(F)F (mixture of isomers) | –
– | 4.3 nM | – | C[C@H](Oc1cc(NC(=O)N2CCC(F)(F)C2)c(F)cc1C(=O)Nc1c(F)cccc1Cl)C(F)(F)F | –
– | 206 nM | – | CCC(CCO)C(=O)Nc1cc(O[C@@H](C)C(F)(F)F)c(C(=O)Nc2c(F)cccc2Cl)cc1F (stereo partly specified) | –
– | 46 nM | – | CCCC(=O)Nc1cc(O[C@@H](C)C(F)(F)F)c(C(=O)Nc2c(F)cccc2Cl)cc1F | half-life [4]: 31 min; half-life [5]: < 4 min
– | 64 nM | – | CC/C(=C\CO)C(=O)Nc1cc(O[C@@H](C)C(F)(F)F)c(C(=O)Nc2c(F)cccc2Cl)cc1F | –
– | 53 nM | – | CCNC(=O)Nc1cc(O[C@@H](C)C(F)(F)F)c(C(=O)Nc2c(F)cccc2Cl)cc1F | –
– | 55 nM | – | C[C@H](Oc1cc(NC(=O)C2CC2)c(F)cc1C(=O)Nc1c(F)cccc1Cl)C(F)(F)F | –
56 min | 1.5 nM | 45 min | C[C@H](Oc1cc(NC(=O)N2CCCC2CO)c(F)cc1C(=O)Nc1c(F)cccc1Cl)C(F)(F)F (mixture of isomers) | –
62 min | 0.92 nM | 106 min | C[C@H](Oc1cc(NC(=O)N2C(=O)CCC2CO)c(F)cc1C(=O)Nc1c(F)cccc1Cl)C(F)(F)F (mixture of isomers) | Vdss [8]: 3.6 L/kg; half-life [9]: 180 min; QH [10]: ~ 20%; fraction unbound [11]: 0.012; bioavailability [12]: > 100%; fraction unbound [13]: 0.007
142 min | 430 nM | 178 min | C[C@H](Oc1cc(NC(=O)N2CC(CO)C2)c(F)cc1C(=O)Nc1c(F)cccc1Cl)C(F)(F)F | –
